# Publication PMC9014857 (ACS Medicinal Chemistry Letters, 2022)
# What was measured:
# [1] = system: EEEV V105; assay: microbe, parasite or virus in culture; type: cell-based, eastern equine encephalitis virus; conditions: for EC50: Eastern equine encephalitis virus, Vero 76, 48 h, read-out: EEEV V105 CPE EC50
# [2] = system: VEEV TC83; assay: microbe, parasite or virus in culture; type: cell-based; conditions: Venezuelan equine encephalitis virus, read-out: CPE EC50 (VEEV TC83)
# [3] = system: VEEV INH9813
# [4] = Mouse plasma stability; conditions: CD-1, mouse
# [5] = system: VEEV INH9813; assay: microbe, parasite or virus in culture; conditions: Venezuelan equine encephalitis virus, Vero 76, read-out: CPE EC50, VEEV and EEEV
structure (smiles),measurement,setting,value
CN1CCN(C)C2C1=Nc1ccc([N+](=O)[O-])cc1C(=O)N2c1ccccc1 (stereo not shown) [7e],EC50,[1],59 ± 10 nM
COc1ccc(N2C(=O)c3cc([N+](=O)[O-])ccc3N=C3C2N(C)CCN3C)cc1 (stereo not shown) [7a],EC50,[2],41 nM
COc1ccc(N2C(=O)c3cc(C#N)ccc3N=C3C2N(C)CCN3C)cc1 (stereo not shown) [7l],loss in antiviral activity for EEEV,[1],75 fold
same,loss in antiviral activity for VEEV,[3],100 fold
COc1ccc(N2C(=O)c3cc(C#N)cc(-c4ccc(C)nc4)c3N=C3C2N(C)CCN3C)cc1F (stereo not shown) [7o],half-life,[4],> 4.82 h
same,EC50,[5],160 to 240 nM
COc1ccc(N2C(=O)c3cc([N+](=O)[O-])ccc3N=C3C2N(C)CCN3C)cc1F (stereo not shown) [7b],EC50,[1],27 ± 3 nM
